Experimental data taken from publication PMC11618438 (ACS Omega, 2024).

How the values were obtained:
[1] = tested on: human MT1 receptors expressed in CHO cells; details: [125I]-iodomelatonin; cited from earlier work
[2] = target: T1, MT1 (Homo sapiens, UniProt P48039); assay: β-arrestin2 recruitment BRET assay in HEK293 cells; type: cell-based; details: for EC50: hMT1 HEK293 cells, BRET; for effect on ß-arrestin recruitment: Figure S2C
[3] = target: T1, MT1; assay: ERK activation; type: cell-based; details: for EC50: hMT1 cells, 5 min stimulation
[4] = target: T1, MT1; assay: cAMP accumulation assay, forskolin-stimulated HEK293 cells; type: cell-based; details: for EC50: hMT1 HEK293 cells, 1 μM forskolin
[5] = target: T1, MT1; assay: 2-[125I]-iodomelatonin competition binding assay, membranes of HEK293 cells; details: for Ki: 2-[125I]MLT binding assay, hMT1 stably expressed in HEK293 cells; for drop in binding affinity: MT1, relative to 19c
[6] = tested on: HT-1080; assay: Cell survival by MTT assay, HT-1080; type: cell-based; details: IC50 MLT+TAM versus IC50 compound
[7] = target: T2, human ERα (Homo sapiens, UniProt P03372); assay: cell-based
T2 sequence (P03372 1-595): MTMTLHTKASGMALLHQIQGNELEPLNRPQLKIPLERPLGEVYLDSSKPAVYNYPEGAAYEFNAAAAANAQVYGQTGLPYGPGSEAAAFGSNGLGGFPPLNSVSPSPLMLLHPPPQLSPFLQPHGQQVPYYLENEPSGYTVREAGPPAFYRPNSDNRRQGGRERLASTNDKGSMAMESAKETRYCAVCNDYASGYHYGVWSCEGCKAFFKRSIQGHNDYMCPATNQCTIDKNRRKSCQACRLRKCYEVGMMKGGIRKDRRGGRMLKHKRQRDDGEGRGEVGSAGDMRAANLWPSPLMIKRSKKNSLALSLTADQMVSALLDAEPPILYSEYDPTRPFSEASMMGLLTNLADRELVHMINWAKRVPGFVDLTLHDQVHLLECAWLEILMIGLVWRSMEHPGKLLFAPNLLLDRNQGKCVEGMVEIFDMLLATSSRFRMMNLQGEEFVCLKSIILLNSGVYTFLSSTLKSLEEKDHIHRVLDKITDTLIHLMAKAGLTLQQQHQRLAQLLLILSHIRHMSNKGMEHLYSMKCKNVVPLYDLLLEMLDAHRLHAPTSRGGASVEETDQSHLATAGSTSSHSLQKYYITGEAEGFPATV

[8] = tested on: MDA-MB-231; assay: Cell survival by MTT assay, MDA-MB-231; type: cell-based; details: IC50 MLT+TAM versus IC50 compound
[9] = pEC50 ± S.E.M., ß-arrestin recruitment
[10] = pEC50 ± S.E.M., cAMP accumulation

T1 sequence (P48039 whole entry): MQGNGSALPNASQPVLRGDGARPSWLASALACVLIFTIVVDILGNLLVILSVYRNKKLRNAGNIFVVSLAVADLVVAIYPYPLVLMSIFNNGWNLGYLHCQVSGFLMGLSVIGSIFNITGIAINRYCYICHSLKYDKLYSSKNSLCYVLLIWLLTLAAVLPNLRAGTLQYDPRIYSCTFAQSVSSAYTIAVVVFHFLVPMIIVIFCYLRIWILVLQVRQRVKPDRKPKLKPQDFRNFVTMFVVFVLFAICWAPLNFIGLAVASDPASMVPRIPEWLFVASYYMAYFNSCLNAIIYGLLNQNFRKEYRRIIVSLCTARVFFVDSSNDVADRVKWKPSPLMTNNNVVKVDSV

Row | Structure (SMILES) | affinity, competition binding [1] [nM] | EC50 ([2]; EC50, ß-arrestin recruitment) [nM] | EC50 [2, 9] [nM] | EC50 ([3]; EC50, ERK activation) [nM] | EC50 ([3]; pEC50 ± S.E.M., ERK activation) [nM] | EC50 ([4]; EC50, cAMP accumulation) [nM] | EC50 [4, 10] [nM] | Ki ([5]; Ki) [nM] | drop in binding affinity [5] | Ki ([5]; pKi ± S.E.M.) [nM] | sensitization versus combined melatonin and tamoxifen treatment [6] [fold] | effect on ß-arrestin recruitment [2] | IC50 [7] [nM] | effect on ERK activation ([3]; cells expressing MT1) | sensitization versus combined melatonin and tamoxifen treatment [8] [fold] | right shift of cAMP EC50 compared to Ki ([4]; MT1) [logs]
1 | COc1ccc2[nH]cc(CCNC(C)=O)c2c1 [MLT, melatonin] | 8.6 | – | – | – | – | – | – | – | – | – | – | – | – | – | – | –
2 | CC/C(=C(\c1ccccc1)c1ccc(OCCN(C)C(=O)CCCCCOc2ccc3[nH]cc(CCNC(C)=O)c3c2)cc1)c1ccccc1 [compound 19b, (Z)-6-((3-(2-Acetamidoethyl)-1H-indol-5-yl)oxy)-N-(2-(4-(1,2-diphenylbut-1-en-1-yl)phenoxy)ethyl)-N-methylhexanamide] | – | 4660 | 3890 | 178 | 120 | 389 | 372 | 3150 | > 1,000 fold | 2950 | – | – | – | – | – | –
3 | CC/C(=C(\c1ccccc1)c1ccc(OCCN(C)CCOCCOCCOc2ccc3[nH]cc(CCNC(C)=O)c3c2)cc1)c1ccccc1 [compound 21, (Z)-N-(2-(5-(2-(2-(2-((2-(4-(1,2-Diphenylbut-1-en-1-yl)phenoxy)ethyl)(methyl)amino)ethoxy)ethoxy)ethoxy)-1H-indol-3-yl)ethyl)acetamide] | – | 197 | 138 | 36 | 28.2 | 74.3 | 63.1 | 6.5 | – | 6.17 | 3.6 | clear partial effect | – | – | – | –
4 | CC/C(=C(\c1ccccc1)c1ccc(OCCN(C)C(=O)CCCCOc2ccc3[nH]cc(CCNC(C)=O)c3c2)cc1)c1ccccc1 [19a, (Z)-5-((3-(2-Acetamidoethyl)-1H-indol-5-yl)oxy)-N-(2-(4-(1,2-diphenylbut-1-en-1-yl)phenoxy)ethyl)-N-methylpentanamide] | – | – | 977 | – | – | > 10000 | 8910 | > 10000 | > 1,000 fold | – | – | no effect | ~100 | no effect | 3.0 | –
5 | CC/C(=C(\c1ccccc1)c1ccc(OCCN(C)CCCCCC(=O)NCCCOc2ccc3[nH]cc(CCNC(C)=O)c3c2)cc1)c1ccccc1 [16b, (Z)-N-(3-((3-(2-Acetamidoethyl)-1H-indol-5-yl)oxy)propyl)-6-((2-(4-(1,2-diphenylbut-1-en-1-yl)phenoxy)ethyl)(methyl)amino)hexanamide] | – | 999 | 955 | 16 | 13.8 | 987 | 871 | 22 | – | 20 | – | – | – | – | – | –
6 | CC/C(=C(\c1ccccc1)c1ccc(OCCN(C)C(=O)CCCCCCOc2ccc3[nH]cc(CCNC(C)=O)c3c2)cc1)c1ccccc1 [19c, (Z)-7-((3-(2-Acetamidoethyl)-1H-indol-5-yl)oxy)-N-(2-(4-(1,2-diphenylbut-1-en-1-yl)phenoxy)ethyl)-N-methylheptanamide] | – | 2230 | 1070 | 161 | 61.7 | – | 209 | 2.8 | – | 2.63 | – | – | ~100 | – | – | 2
